US11547697B2, “Heterocyclic compounds and uses thereof” (MILLENNIUM PHARMACEUTICALS, INC., priority 2009, dated 2023)
Where two headings read alike, the source gives them in different places.

Tests used:
p110α/p85α = p110α/p85α (Homo sapiens (Human), UniProt P42336); assay: PI 3-Kinase (human) HTRF assay, p110α/p85α; type: biochemical; conditions: read-out: PI3K α IC50
p110β/p85α = p110β/p85α (Homo sapiens (Human), UniProt P42338); assay: PI 3-Kinase (human) HTRF assay, p110β/p85α; type: biochemical; conditions: read-out: PI3K β IC50
p110δ/p85α = p110δ/p85α (Homo sapiens (Human), UniProt O00329); assay: PI 3-Kinase (human) HTRF assay, p110δ/p85α; type: biochemical; conditions: read-out: PI3K δ IC50
p110γ = p110γ (Homo sapiens (Human), UniProt P48736); assay: PI 3-Kinase (human) HTRF assay, p110γ; type: biochemical; conditions: read-out: PI3K γ IC50
Method: An exemplary system is PI 3-Kinase (human) HTRF™ Assay from Upstate. […] Briefly, the assay is a time resolved FRET assay that indirectly measures PIP3 product formed by the activity of a PI3-K. The kinase reaction is performed in a microtitre plate (e.g., a 384 well microtitre plate). The total reaction volume is approximately 20 ul per well. In the first step, each well receives 2 ul of test compound in 20% dimethylsulphoxide resulting in a 2% DMSO final concentration. Next, approximately 14.5 ul of a kinase/PIP2 mixture (diluted in 1× reaction buffer) is added per well for a final concentration of 0.25-0.3 ug/ml kinase and 10 μM PIP2. The plate is sealed and incubated for 15 minutes at room temperature. To start the reaction, 3.5 ul of ATP (diluted in 1× reaction buffer) is added per well for a final concentration of 10 μM ATP. The plate is sealed and incubated for 1 hour at room temperature. The reaction is stopped by adding 5 ul of Stop Solution per well and then 5 ul of Detection Mix is added per well. The plate is sealed, incubated for 1 hour at room temperature, and then read on an appropriate plate reader. Data is analyzed and IC50s are generated using GraphPad Prism 5. […] For PI3K α, β, δ, and γ, the nM concentration of inhibitor to reach IC50 is provided.

[1] = system: tumor cells with a PI3Kα mutation (e.g., MDA-MB-361 and T47D); assay: Proliferation of tumor cells with PI3Kα mutation; type: cell-based; conditions: Homo sapiens, T47D cells
[2] = read-out: T47D proliferation IC50

Chain of p110β/p85α (P42338 whole entry): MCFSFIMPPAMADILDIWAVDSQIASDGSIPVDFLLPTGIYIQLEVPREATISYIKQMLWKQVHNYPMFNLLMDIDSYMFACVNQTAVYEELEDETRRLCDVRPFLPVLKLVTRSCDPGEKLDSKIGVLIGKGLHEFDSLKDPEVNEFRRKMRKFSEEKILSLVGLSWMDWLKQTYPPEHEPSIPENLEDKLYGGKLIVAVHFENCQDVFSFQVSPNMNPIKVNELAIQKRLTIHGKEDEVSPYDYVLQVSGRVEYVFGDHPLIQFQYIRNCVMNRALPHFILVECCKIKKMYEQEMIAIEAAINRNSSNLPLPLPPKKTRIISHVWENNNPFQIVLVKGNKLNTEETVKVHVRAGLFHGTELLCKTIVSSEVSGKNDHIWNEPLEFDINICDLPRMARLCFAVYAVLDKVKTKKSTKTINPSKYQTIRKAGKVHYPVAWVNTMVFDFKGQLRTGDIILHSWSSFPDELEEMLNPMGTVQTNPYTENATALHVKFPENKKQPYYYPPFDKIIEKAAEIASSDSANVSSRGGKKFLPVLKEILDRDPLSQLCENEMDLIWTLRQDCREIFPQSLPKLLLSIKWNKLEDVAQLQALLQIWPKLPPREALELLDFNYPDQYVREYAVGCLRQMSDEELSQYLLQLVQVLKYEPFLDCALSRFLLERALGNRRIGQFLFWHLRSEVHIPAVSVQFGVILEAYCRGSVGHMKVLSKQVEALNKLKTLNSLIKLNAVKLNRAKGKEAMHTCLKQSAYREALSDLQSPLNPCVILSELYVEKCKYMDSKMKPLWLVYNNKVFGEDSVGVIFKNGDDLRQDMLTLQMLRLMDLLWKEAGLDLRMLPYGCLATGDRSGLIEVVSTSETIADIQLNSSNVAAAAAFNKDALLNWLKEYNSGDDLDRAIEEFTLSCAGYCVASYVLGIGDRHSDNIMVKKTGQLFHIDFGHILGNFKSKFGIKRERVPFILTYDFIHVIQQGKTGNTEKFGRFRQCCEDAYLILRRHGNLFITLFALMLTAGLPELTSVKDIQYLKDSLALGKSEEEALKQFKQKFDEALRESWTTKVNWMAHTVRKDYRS
Chain of p110β/p85α (P27986 whole entry partner): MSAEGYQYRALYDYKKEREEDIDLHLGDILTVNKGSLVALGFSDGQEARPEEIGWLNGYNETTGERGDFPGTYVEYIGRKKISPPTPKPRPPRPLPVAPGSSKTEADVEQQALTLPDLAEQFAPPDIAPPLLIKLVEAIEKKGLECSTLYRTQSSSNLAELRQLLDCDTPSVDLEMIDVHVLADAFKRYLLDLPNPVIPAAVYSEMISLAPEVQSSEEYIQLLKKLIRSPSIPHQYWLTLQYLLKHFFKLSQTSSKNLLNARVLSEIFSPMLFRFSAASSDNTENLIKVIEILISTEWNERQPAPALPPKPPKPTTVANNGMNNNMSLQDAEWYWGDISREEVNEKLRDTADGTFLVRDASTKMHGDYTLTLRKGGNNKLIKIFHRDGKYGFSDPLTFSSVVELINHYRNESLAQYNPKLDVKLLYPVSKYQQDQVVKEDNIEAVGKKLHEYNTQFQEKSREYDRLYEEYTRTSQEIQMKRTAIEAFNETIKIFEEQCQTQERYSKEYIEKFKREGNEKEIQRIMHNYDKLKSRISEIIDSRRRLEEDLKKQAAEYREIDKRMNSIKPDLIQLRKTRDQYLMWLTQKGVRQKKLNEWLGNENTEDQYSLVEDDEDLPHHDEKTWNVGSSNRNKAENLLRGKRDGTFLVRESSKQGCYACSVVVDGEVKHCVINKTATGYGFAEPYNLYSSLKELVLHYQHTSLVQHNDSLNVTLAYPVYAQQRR
Chain of p110α/p85α (P42336 whole entry): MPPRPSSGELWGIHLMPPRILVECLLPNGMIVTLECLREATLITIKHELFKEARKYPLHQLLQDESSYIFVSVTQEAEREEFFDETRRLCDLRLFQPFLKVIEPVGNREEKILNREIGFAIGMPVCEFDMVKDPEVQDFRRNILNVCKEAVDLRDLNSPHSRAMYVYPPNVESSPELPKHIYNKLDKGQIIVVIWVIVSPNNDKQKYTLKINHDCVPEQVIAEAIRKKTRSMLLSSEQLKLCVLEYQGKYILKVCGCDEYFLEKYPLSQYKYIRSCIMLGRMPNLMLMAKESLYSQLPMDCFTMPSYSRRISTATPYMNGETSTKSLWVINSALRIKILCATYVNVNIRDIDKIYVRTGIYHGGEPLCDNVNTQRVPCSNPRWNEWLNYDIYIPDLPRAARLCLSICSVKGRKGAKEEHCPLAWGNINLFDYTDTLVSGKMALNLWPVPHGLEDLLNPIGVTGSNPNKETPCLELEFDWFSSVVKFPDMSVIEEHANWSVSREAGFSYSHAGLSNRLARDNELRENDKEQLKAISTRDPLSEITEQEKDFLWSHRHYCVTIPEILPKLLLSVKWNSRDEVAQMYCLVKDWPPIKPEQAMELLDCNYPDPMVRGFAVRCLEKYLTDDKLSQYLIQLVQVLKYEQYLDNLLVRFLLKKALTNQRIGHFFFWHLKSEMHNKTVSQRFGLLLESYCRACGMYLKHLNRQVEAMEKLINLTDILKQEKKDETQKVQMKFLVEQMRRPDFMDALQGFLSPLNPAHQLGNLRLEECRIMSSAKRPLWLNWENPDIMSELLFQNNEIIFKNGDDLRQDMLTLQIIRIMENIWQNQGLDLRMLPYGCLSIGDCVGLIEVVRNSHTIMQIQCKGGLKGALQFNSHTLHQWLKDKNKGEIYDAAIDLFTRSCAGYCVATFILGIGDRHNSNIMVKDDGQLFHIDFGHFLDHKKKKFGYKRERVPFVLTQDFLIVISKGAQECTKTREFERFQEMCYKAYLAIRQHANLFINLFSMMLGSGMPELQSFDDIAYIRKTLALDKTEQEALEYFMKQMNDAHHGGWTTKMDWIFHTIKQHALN
Chain of p110α/p85α (P27986 whole entry partner): as the sequence (P27986 whole entry partner) above
Chain of p110δ/p85α (O00329 whole entry): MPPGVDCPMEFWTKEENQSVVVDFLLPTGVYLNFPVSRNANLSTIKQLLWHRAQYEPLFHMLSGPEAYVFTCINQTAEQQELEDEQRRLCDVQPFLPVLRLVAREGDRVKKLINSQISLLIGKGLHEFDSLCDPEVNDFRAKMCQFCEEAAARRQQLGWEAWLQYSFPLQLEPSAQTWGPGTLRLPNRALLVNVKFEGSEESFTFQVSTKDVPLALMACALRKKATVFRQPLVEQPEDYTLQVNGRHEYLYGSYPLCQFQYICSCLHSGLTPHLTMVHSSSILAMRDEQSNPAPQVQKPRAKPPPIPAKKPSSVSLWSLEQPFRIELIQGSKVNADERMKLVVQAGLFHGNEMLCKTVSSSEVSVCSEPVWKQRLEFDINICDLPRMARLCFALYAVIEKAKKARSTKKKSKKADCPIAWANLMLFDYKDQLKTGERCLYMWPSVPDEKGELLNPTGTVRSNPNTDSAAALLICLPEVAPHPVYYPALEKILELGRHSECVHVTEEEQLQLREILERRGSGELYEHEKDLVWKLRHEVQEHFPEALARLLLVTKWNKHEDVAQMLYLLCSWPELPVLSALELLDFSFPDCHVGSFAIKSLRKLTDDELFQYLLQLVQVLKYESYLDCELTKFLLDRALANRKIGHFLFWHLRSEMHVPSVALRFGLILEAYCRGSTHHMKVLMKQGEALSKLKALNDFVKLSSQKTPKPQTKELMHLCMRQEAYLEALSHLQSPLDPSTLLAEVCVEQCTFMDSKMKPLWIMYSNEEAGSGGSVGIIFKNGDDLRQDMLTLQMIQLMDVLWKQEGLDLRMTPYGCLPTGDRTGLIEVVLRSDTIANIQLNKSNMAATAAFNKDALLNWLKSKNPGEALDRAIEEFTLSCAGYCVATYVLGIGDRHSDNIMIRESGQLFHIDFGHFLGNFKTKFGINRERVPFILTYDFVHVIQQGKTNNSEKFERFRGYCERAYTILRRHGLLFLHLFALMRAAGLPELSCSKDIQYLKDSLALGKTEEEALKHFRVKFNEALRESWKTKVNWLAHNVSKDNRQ
Chain of p110δ/p85α (P27986 whole entry partner): as the sequence (P27986 whole entry partner) above
Chain of p110γ (P48736 whole entry): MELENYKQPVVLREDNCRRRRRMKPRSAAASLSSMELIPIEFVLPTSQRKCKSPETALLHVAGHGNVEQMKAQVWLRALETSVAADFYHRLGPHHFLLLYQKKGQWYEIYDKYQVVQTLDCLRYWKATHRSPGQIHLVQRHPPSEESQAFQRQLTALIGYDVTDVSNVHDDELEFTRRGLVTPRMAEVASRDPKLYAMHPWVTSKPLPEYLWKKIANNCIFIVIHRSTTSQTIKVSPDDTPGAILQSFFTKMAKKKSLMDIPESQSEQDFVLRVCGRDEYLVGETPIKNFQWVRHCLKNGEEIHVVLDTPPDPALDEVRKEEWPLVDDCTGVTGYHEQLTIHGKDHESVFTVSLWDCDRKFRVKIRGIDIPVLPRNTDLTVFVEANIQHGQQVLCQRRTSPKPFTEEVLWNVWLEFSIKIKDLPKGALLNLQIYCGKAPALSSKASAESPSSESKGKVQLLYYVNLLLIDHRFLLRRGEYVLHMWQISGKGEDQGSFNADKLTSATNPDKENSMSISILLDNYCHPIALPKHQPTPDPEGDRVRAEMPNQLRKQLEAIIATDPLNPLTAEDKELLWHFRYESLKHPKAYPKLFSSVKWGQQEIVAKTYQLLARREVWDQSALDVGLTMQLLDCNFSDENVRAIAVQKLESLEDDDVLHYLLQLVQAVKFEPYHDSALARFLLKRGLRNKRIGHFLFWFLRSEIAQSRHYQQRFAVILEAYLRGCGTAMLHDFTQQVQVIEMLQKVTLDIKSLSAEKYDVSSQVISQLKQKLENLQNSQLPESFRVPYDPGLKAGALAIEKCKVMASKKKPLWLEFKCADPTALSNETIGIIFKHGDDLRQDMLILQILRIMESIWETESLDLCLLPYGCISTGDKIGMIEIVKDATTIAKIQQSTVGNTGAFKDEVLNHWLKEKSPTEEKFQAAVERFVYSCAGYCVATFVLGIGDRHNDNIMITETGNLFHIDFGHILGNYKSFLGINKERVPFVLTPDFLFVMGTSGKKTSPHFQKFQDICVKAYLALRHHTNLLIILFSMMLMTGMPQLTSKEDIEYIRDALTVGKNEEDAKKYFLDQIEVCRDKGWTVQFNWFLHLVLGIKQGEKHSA

Row | SMILES | IC50 (p110α/p85α) [µM] | IC50 (p110β/p85α) [µM] | IC50 (p110δ/p85α) [µM] | IC50 (p110γ) [µM] | IC50 ([1]; read-out: T47D proliferation) [µM] | IC50 (p110α/p85α; in vitro) [µM] | IC50 (p110β/p85α; in vitro) [µM] | IC50 (p110δ/p85α; in vitro) [µM] | IC50 (p110γ; in vitro) [µM] | IC50 [1, 2] [µM]
1 | CC(C)N1CCC(Nc2ncnc3ccc(-c4ccc5oc(N)nc5c4)cc23)CC1 [compound 101] | < 0.1 | < 10 | < 1 | < 10 | < 10 | – | – | – | – | –
2 | CN(C)CC(=O)N1CCC(Nc2ncnc3ccc(-c4ccc5oc(N)nc5c4)cc23)CC1 [compound 103] | < 0.1 | < 1 | < 1 | < 1 | < 10 | – | – | – | – | –
3 | Nc1nc2cc(-c3ccc4ncc(N5CCN(C(=O)[C@@H]6CCCN6)CC5)nc4c3)ccc2o1 [compound 121] | < 0.1 | < 0.1 | < 0.1 | < 0.1 | < 1 | – | – | – | – | –
4 | Nc1nc2cc(-c3ccc4ncc(NCCN5CCOCC5)nc4c3)ccc2o1 [compound 133] | < 0.1 | < 1 | < 1 | < 1 | < 10 | – | – | – | – | –
5 | CC(N)C(=O)N1CCN(c2cnc3ccc(-c4ccc5oc(N)nc5c4)cc3n2)CC1 (stereo not drawn) [compound 134] | < 0.1 | < 1 | < 1 | < 10 | < 1 | – | – | – | – | –
6 | CC(=O)N1CCC(N(C)c2ncnc3ccc(-c4ccc5oc(N)nc5c4)cc23)CC1 [compound 137] | < 0.1 | < 1 | < 1 | < 1 | < 1 | – | – | – | – | –
7 | CN(C)CC(=O)N1CCN(c2cnc3ccc(-c4ccc5oc(N)nc5c4)cc3n2)CC1 [compound 139] | < 0.1 | < 1 | < 1 | < 1 | < 1 | – | – | – | – | –
8 | CCN1CCN(c2cnc3ccc(-c4ccc5oc(N)nc5c4)cc3n2)CC1 [compound 152] | < 0.1 | < 0.1 | < 10 | < 1 | < 10 | – | – | – | – | –
9 | Nc1nc2cc(-c3ccc4ncc(N5CCN(CC6CC6)CC5)nc4c3)ccc2o1 [compound 153] | < 0.1 | < 0.1 | < 1 | < 1 | < 1 | – | – | – | – | –
10 | CNC(=O)N1CCN(c2cnc3ccc(-c4ccc5oc(N)nc5c4)cc3n2)CC1 [compound 154] | < 0.1 | < 1 | < 10 | < 0.1 | < 1 | – | – | – | – | –
11 | CN1CC(C(=O)N2CCN(c3cnc4ccc(-c5ccc6oc(N)nc6c5)cc4n3)CC2)C1 [compound 156] | < 0.1 | < 1 | < 1 | < 1 | < 1 | – | – | – | – | –
12 | CN1CCC(NC(=O)c2cnc3ccc(-c4ccc5oc(N)nc5c4)cn23)CC1 [compound 159] | < 0.1 | < 1 | < 0.1 | < 1 | < 10 | – | – | – | – | –
13 | Nc1nc2cc(-c3ccc4ncc(N5CCC(N6CCOCC6)CC5)nc4c3)ccc2o1 [compound 171] | < 0.1 | < 1 | < 1 | < 1 | < 1 | – | – | – | – | –
14 | CC1CN(c2cnc3ccc(-c4ccc5oc(N)nc5c4)cc3n2)CCO1 (stereo not drawn) [compound 173] | < 0.1 | < 1 | < 10 | < 0.1 | < 10 | – | – | – | – | –
15 | Cc1nccn1-c1cnc2ccc(-c3ccc4oc(N)nc4c3)cc2n1 [compound 174] | < 0.1 | < 1 | < 10 | < 0.1 | < 10 | – | – | – | – | –
16 | Nc1nc2cc(-c3ccc4ncc(N5CCCC5)nc4c3)ccc2o1 [compound 176] | < 0.1 | < 1 | < 1 | < 0.1 | < 1 | – | – | – | – | –
17 | C[C@@H]1CN(c2cnc3ccc(-c4ccc5oc(N)nc5c4)cc3n2)CCN1 [compound 179] | < 0.1 | < 1 | < 10 | < 10 | < 10 | – | – | – | – | –

Row | SMILES | IC50 (p110α/p85α) [µM] | IC50 (p110β/p85α) [µM] | IC50 (p110δ/p85α) [µM] | IC50 (p110γ) [µM] | IC50 ([1]; read-out: T47D proliferation) [µM] | IC50 (p110α/p85α; in vitro) [µM] | IC50 (p110β/p85α; in vitro) [µM] | IC50 (p110δ/p85α; in vitro) [µM] | IC50 (p110γ; in vitro) [µM] | IC50 [1, 2] [µM]
18 | CS(=O)(=O)CCN1CCC(Nc2cnc3ccc(-c4ccc5oc(N)nc5c4)cc3n2)CC1 [compound 181] | < 0.1 | < 10 | < 1 | < 0.1 | < 10 | – | – | – | – | –
19 | CC(C)(C)N1CCN(c2cnc3ccc(-c4ccc5oc(N)nc5c4)cc3n2)CC1 [compound 182] | < 0.1 | < 1 | < 1 | < 1 | < 10 | – | – | – | – | –
20 | CCn1cnc2ccc(-c3ccc4oc(N)nc4c3)cc2c1=O [compound 183] | < 0.1 | < 10 | < 10 | < 0.1 | < 10 | – | – | – | – | –
21 | Nc1nc2cc(-c3ccc4ncc(C(=O)N5CCCC5)n4c3)ccc2o1 [compound 186] | < 0.1 | < 10 | < 1 | < 0.1 | < 10 | – | – | – | – | –
22 | Nc1nc2cc(-c3ccc4ncc(C(=O)NC5CC5)n4c3)ccc2o1 [compound 187] | < 0.1 | < 10 | < 1 | < 0.1 | < 1 | – | – | – | – | –
23 | CCNC(=O)c1cnc2ccc(-c3ccc4oc(N)nc4c3)cn12 [compound 188] | < 0.1 | < 1 | < 1 | < 0.1 | < 1 | – | – | – | – | –
24 | Nc1nc2cc(-c3ccc4ncc(C(=O)NCCO)n4c3)ccc2o1 [compound 189] | < 0.1 | < 1 | < 1 | < 1 | < 1 | – | – | – | – | –
25 | Nc1nc2cc(-c3ccc4ncc(C(=O)N5CC(O)C5)n4c3)ccc2o1 [compound 200] | – | – | – | – | – | < 0.1 | < 10 | < 10 | < 0.1 | < 10
26 | Nc1nc2cc(-c3ccc4ncc(C(=O)N5CCC(O)C5)n4c3)ccc2o1 (stereo not drawn) [compound 202] | – | – | – | – | – | < 0.1 | < 10 | < 10 | < 1 | < 1
27 | C[C@H](N)C(=O)N1CCN(c2cnc3ccc(-c4ccc5oc(N)nc5c4)cc3n2)CC1 [compound 207] | – | – | – | – | – | < 0.1 | < 0.1 | < 1 | < 0.1 | < 1
28 | C[C@@H](N)C(=O)N1CCN(c2cnc3ccc(-c4ccc5oc(N)nc5c4)cc3n2)CC1 [compound 208] | – | – | – | – | – | < 0.1 | < 1 | < 1 | < 10 | < 10
29 | Nc1nc2cc(-c3ccc4ncc(N5CCC(O)C5)nc4c3)ccc2o1 (stereo not drawn) [compound 209] | – | – | – | – | – | < 0.1 | < 1 | < 10 | < 0.1 | < 10
30 | CC(=O)N1CCC(Nc2ncnc3ccc(-c4ccc5oc(N)nc5c4)nc23)CC1 [compound 211] | – | – | – | – | – | < 0.1 | < 0.1 | < 0.1 | < 0.1 | < 1
31 | CN1CCC(Nc2ncnc3ccc(-c4ccc5oc(N)nc5c4)nc23)CC1 [compound 212] | – | – | – | – | – | < 0.1 | < 1 | < 1 | < 1 | < 1
32 | Nc1nc2cc(-c3ccc4sc(N)nc4c3)ccc2o1 [compound 248] | – | – | – | – | – | < 10 | < 1 | < 10 | < 1 | < 10
33 | Nc1nc2cc(-c3ccc4ncc(C(=O)N5CCN(C6CC6)CC5)n4c3)ccc2o1 [compound 263] | – | – | – | – | – | < 0.1 | < 10 | < 10 | < 10 | < 10
